These are literature values, as cited in US20120149711A1, “PIPERIDINE DERIVATIVES USED AS OREXIN ANTAGONISTS” (Glaxo Group Limited, priority 2009, published 2012).

No end group written: not given here.

The test system of this data set is freely-feeding rats. The conditions noted are these: central administration, 4 hour time period.

Regarding “orexin-A: ligand for the orexin-1 receptor; an agonist of the orexin receptors (QPLPDCCRQKTCSCRLYELLHGAGNHAAGILTL; ends and bridges not checked; cysteine pairing not given here; UniProt O43612 34-66, looked up)”, the “increase of food intake over control rats receiving vehicle” value is “approximately four-fold”.
